For test [1], the system named is cMyc site within the RANKL promoter in LNCaP cells. The experiment in a line: ChIP analysis (quantitative real-time PCR) of cMyc binding to the RANKL promoter. In kind it is cell-based, human. Background: In qPCR the cycle at which signal appears reflects the starting amount.
Test [2] deals with cMet in LNCaP cells. As to the kind of experiment: cMet expression and phosphorylation (Western blot), LNCaP. The class given is cell-based, human. On the technique in general: A western blot detects proteins with antibodies after separation by electrophoresis.
Test [3] deals with LNCaP-RANKL cells. As to the kind of experiment: Soft agar (anchorage-independent) colony formation, LNCaP-RANKL. Conditions: addition of OPG. The class given is cell-based, human.
Test [4] relates to LNCaP cells. As to the kind of experiment: EMT marker / RANKL expression and signaling by RT-PCR and Western blot, LNCaP model. In kind it is cell-based, human. The method, then:
Total RNA from cells was isolated using RNeasy Mini Kit (Qiagen, Valencia, Calif.) according to manufacturer's instructions. Complementary DNA (cDNA) was generated from 3 μg of total RNA using SuperScript® III First-Strand Synthesis System (Invitrogen, Carlsbad Calif.), and 1 μl of cDNA was subjected to PCR analyses using the following primers: RANKL F: 5′-TGGATCACAGCACATCAGAGCAG-3′ (SEQ ID NO:3); RANKL R: 5′-TGGGGCTCAATCTATATCTCGAAC-3′ (SEQ ID NO:4); RANK F: 5′-GGGAAAGCACTCACAGCTAATTTG-3′ (SEQ ID NO:5); RANK R: 5′-GCACTGGCTTAAACTGTCATTCTCC-3′ (SEQ ID NO:6); OPG F: 5′-GCT AAC CTC ACC TTC GAG-3′ (SEQ ID NO:7); OPG R: 5′-TGA TTG GAC CTG GTT ACC-3′ (SEQ ID NO:8); E-cadherin F: 5′-GCCAAGCAGCAGTACATTCTACACG-3′ (SEQ ID NO:9); E-cadherin R: 5′-GCTGTTCTTCACGTGCTCAAAATCC-3′ (SEQ ID NO:10); N-cadherin F: 5′-GATGTTGAGGTACAGAATCGT-3′ (SEQ ID NO:11); N-cadherin R: 5′-GGT CGG TCT GGA TGG CGA-3′ (SEQ ID NO:12); Snail F: 5′-CAGACCCACTCAGATGTCAA-3′ (SEQ ID NO:13); Snail R: 5′-CATAGTTAGTCACACCTCGT-3′ (SEQ ID NO:14); Vimentin F: 5′-GGA CTC GGT GGA CTT CTC-3′ (SEQ ID NO:15); Vimentin R: 5′-CGC ATC TCC TCC TCG TAG-3′ (SEQ ID NO:16). The PCR reaction cycles involved an initial denaturation at 94° C. for 10 min, followed by 36 cycles of 94° C., 1 min; 55° C., 30 sec for RANKL and RANK and 48° C., 1 min for OPG; 72° C., 1 min and a final extension at 72° C. for 10 min. For E-cadherin and N-cadherin gene amplification, the PCR reactions ran for a total of 32 cycles and the annealing temperature was 55° C. and 47° C., respectively for 30 sec. For Snail, Vimentin, and GAPDH amplification, the PCR reactions ran for a total of 28 cycles with annealing temperatures at 48° C. for 30 sec. The amplified PCR products were detected and analyzed on 1% agarose gel.
ARCaPE and LNCaP cells were cultured in 6-well plate and at 70% confluency, the cells were serum-starved overnight and then treated with 200 ng/ml of trimerized RANKL in serum-free and phenol-red free RPMI-1640 medium for three days before harvesting the cells. ARCaPE-RANKL and LNCaP-RANKL cells were cultured in 6-well plate and treated with 20 μM of LY294002, a PI3K inhibitor, 20 μM of SB203580, an inhibitor of MAP kinase reactivating kinase, or 2 μM of PS341 (bortezomib), a proteasome inhibitor, at 90% confluency for four hours. Cells were lysed in RIPA buffer containing 1× protease inhibitor cocktail (Thermo Fisher Scientific, Waltham, Mass.) and centrifuged, and the supernatants were collected and quantified using Bradford Protein Assay (Thermo Fisher Scientific, Waltham, Mass.). Cell lysates (20-30 μg) were resolved on a 4-12% Bis-Tris gradient SDS-PAGE (Invitrogen, Carlsbad, Calif.) under reducing conditions, followed by transblotting onto nitrocellulose membrane (BioRad, Hercules, Calif.). The membranes were blocked in 5% non-fat milk in PBST for one hour at room temperature (RT) and incubated with diluted primary antibodies in blocking buffer at 4° C. overnight. The primary antibodies used were RANKL, E-cadherin, vimentin, and OPG (Santa Cruz Biotechnology, Inc., Santa Cruz, Calif.), RANK (Amgen, Thousand Oaks, Calif.), N-cadherin (BD Transduction Laboratories, San Jose, Calif.), phosphor-Akt (Ser 473), Akt, phosphor-p38 (Thr180/Tyr182), p38, phosphor-ERK1/2 (Thr202/Tyr204), ERK, phosphor-SAPK/JNK (Thr183/Tyr185), JNK, phosphor-NF-κB p65 (Ser536), and NF-κB p65 (Cell Signaling Technology, Danvers, Mass.). The membranes were washed with PBST for three times before incubating with peroxidase-conjugated anti-mouse or anti-rabbit secondary antibodies at RT for one hour. After three times washing, the membranes were visualized using ECL Plus reagent (GE Healthcare, Piscataway, N.J.).

In test [5] the test system is ARCaPE-RANKL cells. The experiment in a line: Soft agar (anchorage-independent) colony formation, ARCaPE-RANKL. The class given is cell-based, human. The conditions noted are these: addition of OPG.
The test system of test [6] is RANKL-expressing prostate cancer cells. As to the kind of experiment: Stem cell and neuroendocrine marker expression. In kind it is cell-based.
In test [7] the test system is prostate (ARCaP and LNCaP) and osteosarcoma (MG-63 and Saos-2) cells; normal prostate (PrEC and RWPE-1) or bone (RAW264.7) cells. The experiment in a line: RANKL induction of its own expression, cancer versus normal cells. The class given is cell-based.
In test [8] the test system is human cancer cells. As to the kind of experiment: Bone colonization by human cancer cells (FIG. 34). In kind it is in vivo. The conditions noted are these: recombinant sRANKL.

“Also recorded” adds a separate entry of the source.

Turning to osteoprotegerin [OPG], the “induction of cMyc binding to the cMyc site” value in test [1] (exposing to OPG) is listed as “dampened”. Also, the “RANKL- or HGF-induced cMet expression and phosphorylation in LNCaP cells” value in test [2] (OPG (vs RANKL) or anti-HGF antibody (vs HGF) treatment) is recorded as “abrogated”. The “soft agar colony formation (tumorigenicity) of LNCaP-RANKL cells” value in test [3] is recorded as “attenuated”. In addition, in test [4] (addition of OPG), the “RANKL-induced RANKL expression in LNCaP cells” value is listed as “attenuated” and the “RANKL-induced biochemical EMT changes in LNCaP cells” value is “abolished”. The “soft agar colony formation (tumorigenicity) of ARCaPE-RANKL cells” value in test [5] was “attenuated”. Moreover, in test [6], the “expression of neuroendocrine markers” value was “blocked” and the “expression of stem cell markers” value is given as “antagonized”.

B1: RANKL: trimerized recombinant RANKL protein (rRANKL), receptor activator of NF-KB ligand (protein, UniProt O14788 69-317, looked up)
extracellular domain: YFRAQMDPNRISEDGTHCIYRILRLHENADFQDTTLESQDTKLIPDSCRRIKQAFQGAVQKELQHIVGSQHIRAEKAMVDGSWLDLAKRSKLEAQPFAHLTINATDIPSGSHKVSLSSWYHDRGWAKISNMTFSNGKLIVNQDGFYYLYANICFRHHETSGDLATEYLQLMVYVTKTSIKIPSSHTLMKGGSTKYWSGNSEFHFYSINVGGFFKLRSGEEISIEVSNPSLLDPDQDATYFGAFKVRDID
modifications: extracellular domain trimerized
As to B1, the “increase of cMyc binding to the cMyc site” value in test [1] (RANKL-treated LNCaP cells, quantitative real-time PCR) is on record as roughly 11 fold. Further, in test [2] (exogeneous RANKL or HGF treatment), the “cMet expression and phosphorylated level of cMet in LNCaP cells” value is given as “significantly increased”. In test [7], the “ability of recombinant RANKL to induce its own expression” value was “restricted to cancer”. The “RANKL expression at mRNA and protein levels in LNCaP cells” value in test [4] (RANKL treatment) is “induced; also recorded: up-regulated”. Further, the “nuclear levels of cMyc and Max in LNCaP cells” value in test [4] (RANKL-treated versus LNCaP cells) is listed as “higher”. Moreover, the “induction of EMT (EMT-specific markers) in LNCaP cells” value in test [4] (exogenously added RANKL, 200 ng/ml) was “confirmed; also recorded: decreased epithelial marker E-cadherin and increased mesenchymal marker vimentin, N-cadherin, and Snail”. In test [4] (treated with RANKL protein), the “phosphorylation of PI3K/Akt, P38 and NFκB proteins in parental LN cells” value is “elevated”. Moreover, the “bone colonization by human cancer cells” value in test [8] was “promotes bone colonization”.

For the origin of these results see patent US20130263297A1, “METHODS OF TREATING CANCER” (Cedars-Sinai Medical Center, priority 2010, published 2013).
